According to patent US20230148184A1, “COMPOUNDS AND METHODS FOR MODULATING SPLICING” (REMIX THERAPEUTICS INC., priority 2020, published 2023):

Legend:
Assay type in all cases: cell-based
HTT mRNA = assay: RT-qPCR splicing assay for HTT mRNA isoforms (canonical junction CJ and alternative junction AJ); details: A673 or K562 cell line, 24 hours compound treatment; for IC50: decrease in CJ mRNA; for AC50: increase in AJ mRNA
How it was run: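 A673 (DMEM, 10% FBS) or K562 (IMDM, 10% FBS) cells were treated 24 h at 37 °C with an 11-point 3-fold series, top dose 10 uM, DMSO ≤0.25%. In lysates, HTT CJ and AJ isoforms were quantified by one-step RT-qPCR and normalized to PPIA (A673) or GAPDH/GUSB (K562), at least in duplicate.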

HTT CJ mRNA = assay: Gene panel canonical junction qPCR assay, HTT; details: decrease in CJ mRNA levels, RT-qPCR
How it was run: (§1)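 A673 or K562 cells treated 24 h at 37 °C with 11-point 3-fold dilutions (top 10 uM final, DMSO ≤0.25%); lysates analysed by one-step RT-qPCR for canonical-junction mRNA. ΔCt vs GAPDH, GUSB or PPIA housekeeper, normalised to DMSO (ΔΔCt), converted to RQ via 2^(−ΔΔCt) and percentage response.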

SMN2 CJ mRNA = assay: Gene panel canonical junction qPCR assay, SMN2; details: decrease in CJ mRNA levels, RT-qPCR
How it was run: as §1

Target C CJ mRNA = assay: Gene panel canonical junction qPCR assay, Target C; details: decrease in CJ mRNA levels, RT-qPCR
How it was run: as §1

| SMILES | IC50 (HTT mRNA) | AC50 (HTT mRNA) | IC50 (HTT CJ mRNA) | IC50 (SMN2 CJ mRNA) | IC50 (Target C CJ mRNA) |
| --- | --- | --- | --- | --- | --- |
| [2H]C([2H])([2H])N(c1ccc2c(n1)OCc1cc(-n3cccn3)ccc1-2)[C@@H]1C[C@H]2CCC[C@@H](C1)N2 [Compound 200] | < 0.1 µM | < 0.1 µM | < 0.1 µM | < 0.1 µM | 0.1 to 1 µM |
| c1cnn(-c2ccc3c(c2)COc2nc(N4CCC5(CC4)CNC5)ccc2-3)c1 [Compound 169] | 0.1 to 1 µM | 0.1 to 1 µM | 0.1 to 1 µM | 0.1 to 1 µM | 0.1 to 1 µM |
| CCN(c1ccc2c(n1)OCc1cc(-n3cccn3)ccc1-2)C1CCNCC1 [Compound 177] | > 10 µM | > 10 µM | > 10 µM | > 10 µM | > 10 µM |
| CN(c1cnc2c(n1)OCc1cc(-c3cn[nH]c3)ccc1-2)C1CC(C)(C)NC(C)(C)C1 [Compound 142, N,2,2,6,6-pentamethyl-N-[8-(1H-pyrazol-4-yl)-6H-isochromeno[3,4-b]pyrazin-3-yl]piperidin-4-amine] | 0.1 to 1 µM | 0.1 to 1 µM | 0.1 to 1 µM | 0.1 to 1 µM | 1 to 10 µM |
| c1cnn(-c2ccc3c(c2)COc2nc(NC4CCNCC4)ccc2-3)c1 [Compound 174] | > 10 µM | > 10 µM | > 10 µM | 1 to 10 µM | > 10 µM |
| c1cnn(-c2ccc3c(c2)COc2nc(NC4CNC4)ccc2-3)c1 [Compound 166] | > 10 µM | > 10 µM | > 10 µM | 1 to 10 µM | > 10 µM |
| COc1cc(-c2ccc3c(c2)COc2nc(N(C)[C@@H]4C[C@H]5CC[C@@H](C4)N5)ccc2-3)ccn1 [Compound 156] | < 0.1 µM | < 0.1 µM | < 0.1 µM | 0.1 to 1 µM | 0.1 to 1 µM |
| c1cnn(-c2ccc3c(c2)OCCc2cc(N[C@@H]4C[C@H]5CC[C@@H](C4)N5)ccc2-3)c1 [Compound 139, (1R,3S,5S)—N-[5-(pyrazol-1-yl)-8-oxatricyclo [9.4.0.0^[2,7]]pentadeca-1(11),2(7),3,5,12,14-hexaen-13-yl]-8-azabicyclo [3.2.1] octan-3-amine] | > 10 µM | > 10 µM | > 10 µM | > 10 µM | > 10 µM |
| c1cnn(-c2ccc3c(c2)COc2nc(OC4CCNCC4)ccc2-3)c1 [Compound 187] | 1 to 10 µM | > 10 µM | 1 to 10 µM | 1 to 10 µM | > 10 µM |
| c1cnn(-c2ccc3c(c2)OCCc2nc(N[C@@H]4C[C@H]5CC[C@@H](C4)N5)ccc2-3)c1 [Compound 136, N-[(1R,3S,5S)-8-azabicyclo[3.2.1]octan-3-yl]-13-(pyrazol-1-yl)-10-oxa-6-azatricyclo[9.4.0.0^[2,7]]pentadeca-1(11),2(7),3,5,12,14-hexaen-5-amine] | > 10 µM | > 10 µM | > 10 µM | > 10 µM | > 10 µM |
| CC1(C)CC(Nc2ccc3c(n2)OCc2cc(-n4cccn4)ccc2-3)CC(C)(C)N1 [Compound 165] | 0.1 to 1 µM | 0.1 to 1 µM | 0.1 to 1 µM | < 0.1 µM | 0.1 to 1 µM |
| CN(c1ccc2c(n1)OCc1cc(-c3cnn(C)c(=O)c3)ccc1-2)[C@@H]1C[C@H]2CC[C@@H](C1)N2 [Compound 160] | < 0.1 µM | < 0.1 µM | < 0.1 µM | < 0.1 µM | < 0.1 µM |
| [2H]C([2H])([2H])N(c1ccc2c(n1)OCc1cc(-n3cccn3)ccc1-2)C1CCNCC1 [Compound 176] | 1 to 10 µM | 1 to 10 µM | 1 to 10 µM | 1 to 10 µM | > 10 µM |
| c1cnn(-c2ccc3c(c2)COc2nc(N4C[C@H]5CNC[C@H]5C4)ccc2-3)c1 [Compound 185] | > 10 µM | > 10 µM | > 10 µM | 1 to 10 µM | > 10 µM |
| [2H]C([2H])([2H])N(c1ccc2c(n1)OCc1cc(-n3cccn3)ccc1-2)C1CC(C)(C)NC(C)(C)C1 [Compound 199] | 1 to 10 µM | 1 to 10 µM | 1 to 10 µM | 1 to 10 µM | > 10 µM |
| CN(c1ccc2c(n1)OCc1cc(-n3ccnn3)ccc1-2)[C@@H]1C[C@H]2CC[C@@H](C1)N2 [Compound 152] | 0.1 to 1 µM | < 0.1 µM | 0.1 to 1 µM | < 0.1 µM | 0.1 to 1 µM |
| c1cnn(-c2ccc3c(c2)COc2nc(S[C@@H]4C[C@H]5CC[C@@H](C4)N5)ccc2-3)c1 [Compound 193] | > 10 µM | > 10 µM | 1 to 10 µM | > 10 µM | > 10 µM |
| CN(c1ccc2c(n1)OCc1cc(-n3nccn3)ccc1-2)[C@@H]1C[C@H]2CC[C@@H](C1)N2 [Compound 151] | < 0.1 µM | < 0.1 µM | < 0.1 µM | < 0.1 µM | 0.1 to 1 µM |
| CN(c1ccc2c(n1)OCc1cc(-c3cn[nH]c3)ccc1-2)C1CCNCC1 [Compound 116, N-Methyl-N-[8-(1H-pyrazol-4-yl)-6H-isochromeno[3,4-b]pyridin-3-yl]piperidin-4-amine] | 0.1 to 1 µM | 1 to 10 µM | 0.1 to 1 µM | 0.1 to 1 µM | 0.1 to 1 µM |
| c1cnn(-c2ccc3c(c2)COc2nc(N4CCCC5(CNC5)C4)ccc2-3)c1 [Compound 181] | > 10 µM | > 10 µM | > 10 µM | > 10 µM | > 10 µM |
| c1cnn(-c2ccc3c(c2)COc2nc(N4CCC5(CCNC5)CC4)ccc2-3)c1 [Compound 184] | 1 to 10 µM | 1 to 10 µM | 1 to 10 µM | 1 to 10 µM | 1 to 10 µM |
| c1cnn(-c2ccc3c(c2)COc2nc(N4CCCC5(CCNC5)C4)ccc2-3)c1 (stereo not shown) [Compound 192] | > 10 µM | > 10 µM | > 10 µM | > 10 µM | > 10 µM |
| CN(c1ccc2c(n1)OCCc1cc(-c3cn[nH]c3)ccc1-2)C1CC(C)(C)NC(C)(C)C1 [Compound 145] | > 10 µM | > 10 µM | > 10 µM | 1 to 10 µM | 1 to 10 µM |
